Results as given in PubChem BioAssay (NCI).
Several values for one entry are separate records, joined by “and”; a condition that tells them apart may be missing. Equal values may be shown once.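 Following 48 hours of exposure in 96-well plates, responses at five concentrations were used to interpolate endpoints linearly. GI50 = concentration required for 50% inhibition of growth. TGI denotes the concentration required for complete inhibition of growth.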

How the values were obtained:
Test in all cases: DTP human tumour cell line panel, 48 h
SK-MEL-28 melanoma = tested on: SK-MEL-28 melanoma
RPMI-8226 leukemia = tested on: RPMI-8226 leukemia
BT-549 breast = tested on: BT-549 breast
OVCAR-5 ovarian = tested on: OVCAR-5 ovarian
CCRF-CEM leukemia = tested on: CCRF-CEM leukemia
UACC-62 melanoma = tested on: UACC-62 melanoma
MOLT-4 leukemia = tested on: MOLT-4 leukemia
KM12 colon = tested on: KM12 colon
SR leukemia = tested on: SR leukemia
TK-10 renal = tested on: TK-10 renal
HS 578T breast = tested on: HS 578T breast
NCI-H226 lung = tested on: NCI-H226 lung
MDA-MB-435 = tested on: MDA-MB-435
SK-OV-3 ovarian = tested on: SK-OV-3 ovarian
EKVX NSCLC = tested on: EKVX NSCLC
UACC-257 melanoma = tested on: UACC-257 melanoma

Compound	TGI (SK-MEL-28 melanoma) [µM]	TGI (RPMI-8226 leukemia) [µM]	TGI (BT-549 breast) [µM]	TGI (OVCAR-5 ovarian) [µM]	TGI (CCRF-CEM leukemia) [µM]	TGI (UACC-62 melanoma) [µM]	TGI (MOLT-4 leukemia) [µM]	TGI (KM12 colon) [µM]	TGI (SR leukemia) [µM]	TGI (TK-10 renal) [µM]	TGI (HS 578T breast) [µM]	TGI (NCI-H226 lung) [µM]	TGI (MDA-MB-435) [µM]	TGI (SK-OV-3 ovarian) [µM]	TGI (EKVX NSCLC) [µM]	TGI (UACC-257 melanoma)	GI50 (HS 578T breast)
Cc1cc(C)c(C2=NOC(c3ccccc3)(c3cc(=O)n(-c4ccccc4)s3)O2)c(C)c1 (stereo not drawn)	94.4	> 100	52.4	40.9	> 100	51.5	> 100	> 100	> 100	77.1	> 100	57.1	> 100	> 100	50.2	> 100 µM	
COc1ccc(-c2c(N)n(-c3nc4ccccc4s3)c(=O)c3cc([N+](=O)[O-])ccc23)cc1	> 100	> 100	> 100	56.7	> 100	> 100	49.2	> 100	> 100	> 100	37.3	> 100	> 100	33	44.6	> 100 µM	
CSc1nc(N)c(NC2OC(CO)C(O)C2O)c(=O)[nH]1 (stereo not drawn)	> 100	> 100	> 100	> 100	> 100	> 100	> 100	> 100	> 100	> 100	> 100	> 100	> 100	> 100	> 100	> 100 µM	
Cc1cc(=O)[nH]c(NN2C(Cl)C(=O)C2c2ccc(Cl)cc2)n1 (stereo not drawn)	49.6	33.1	86.9	> 60.4	5.67	39.9	22.7	16.1	6.22	48.6	93.5	42	60	> 100	35	> 55.1 µM	
COc1ccc(NC2Oc3cc4c(cc3C(c3cccc(OC)c3OC)C2C)OCO4)cc1 (stereo not drawn)	85.7	> 100	> 100	> 100	47.1	> 100	35.9	> 100	12	> 100	61.5	> 100	43.1	> 100	> 100	69.2 µM	
CCOC(=O)CSc1nc(-c2ccccc2)c(C#N)c(=O)[nH]1	> 100	> 100	> 100	> 100	> 100	> 100	> 100	> 100	> 100	> 100	> 100	> 100	> 100	> 100	> 100	> 100 µM	
COc1nc2c(c(=O)n1C)N(C(C)=O)C1C(N2)OCC(OC(C)=O)C1OC(C)=O (stereo not drawn)	> 10	> 10	> 10	> 10	> 10	> 10	> 10	> 10	> 10	> 10	> 10	> 10	> 10	> 10	> 10	> 10 µM	
C#CCOCC12C=CC(O1)C1C(=O)N(C)C(=O)C12 (stereo not drawn)	> 100	> 100	> 100	> 100	> 100	> 100	> 100	> 100	> 100	> 100	> 100	> 100	> 100	> 100	> 100	21 µM and > 100 µM	> 100 µM and 20 µM
COC(=O)c1c2n(c3ccccc13)C[C@H]1OC(C)(C)O[C@@H]21	> 100	> 100	> 100	> 100	> 100	> 100	> 100	> 100	> 100	> 100	> 100	> 100	> 100	> 100	> 100	> 100 µM	
O=C(N=S(NC(=O)c1ccccc1)C(Cl)(Cl)Cl)c1ccccc1 (stereo not drawn)	66.7	> 100	32.4	50.7	12.1	> 100	30.7	> 100	> 73.4	> 100	99.5	> 58.6	47.4	> 31.6	39.2	83.8 µM	
COCn1c2ccc(OC(C)=O)cc2c2c(=O)oc(N(C)C)nc21	> 100	> 100	> 100	> 100	> 100	> 100	> 100	> 100	> 100	> 100	> 100	> 100	> 100	> 100	> 100	> 100 µM	
C=CCOC(=O)/C(=C\c1ccc(OC)c(OC)c1)c1ccc(OC)c(OC)c1	> 100	47.6	> 100	> 100	> 100	> 100	49.5	> 100	72.3	> 100	> 100	> 100	> 100	> 100	> 100	> 100 µM	
N#C/C(=C\c1ccccc1)C(=O)Nc1nnc(-c2ccccc2)o1	> 100	62.6	> 100	> 100	50.6	53.7	> 100	> 100	93.2	> 100	> 100	> 100	> 100	> 100	> 100	87.4 µM	
CC1(C)CC(=O)c2c(nc3ccc4ccccc4c3c2-c2ccc(NC(=O)CCCC(=O)Nc3ccc(-c4c5c(nc6ccc7ccccc7c46)CC(C)(C)CC5=O)cc3)cc2)C1	> 100	> 100	> 100	> 100	> 100	> 100	> 100	> 100	> 100	> 100	> 100	> 100	> 100	> 100	> 100	> 100 µM	
Cc1ccc(N2C(=O)C3c4[nH]c5ccccc5c4C4CCC(C(C)(C)C)CC4C3C2=O)cc1 (stereo not drawn)	49	> 41.5	39.3	39.3	15.4	31	9.2	65	16.6	15.7	16.9	33.2	42	28.2	42.4	40.5 µM	
Cc1c(/C=N/NC(=S)Nc2ccccc2Cl)c(=O)n(-c2ccccc2)n1C	> 100	> 100	> 100	> 100	> 100	> 100	> 100	> 100	> 100	91.7	85.3	> 100	> 100	82.5	> 100	> 100 µM	
CC1(CCC2C=CCC2)CCCNC1=S (stereo not drawn)	> 10	> 10	> 10	> 10	> 10	> 10	> 10	> 10	> 10	> 10	> 10	> 10	> 10	> 10	> 10	> 10 µM	
